Measured values as given in ChEMBL document CHEMBL4699459, “Structure activity study of S-trityl-cysteamine dimethylaminopyridine derivatives as SIRT2 inhibitors: Improvement of SIRT2 binding and inhibition” (Bioorg Med Chem Lett, 2020).

Columns and labels:
[1] = target: T1, NAD-dependent protein deacetylase sirtuin-2 (Homo sapiens, UniProt Q8IXJ6); test: Inhibition of recombinant SIRT2 (unknown origin) using FAM-labeled RHKK(Ac) LM peptide as substrate incubated for 60 mins by electrophoretic mobility shift assay
T1 sequence (Q8IXJ6 whole entry): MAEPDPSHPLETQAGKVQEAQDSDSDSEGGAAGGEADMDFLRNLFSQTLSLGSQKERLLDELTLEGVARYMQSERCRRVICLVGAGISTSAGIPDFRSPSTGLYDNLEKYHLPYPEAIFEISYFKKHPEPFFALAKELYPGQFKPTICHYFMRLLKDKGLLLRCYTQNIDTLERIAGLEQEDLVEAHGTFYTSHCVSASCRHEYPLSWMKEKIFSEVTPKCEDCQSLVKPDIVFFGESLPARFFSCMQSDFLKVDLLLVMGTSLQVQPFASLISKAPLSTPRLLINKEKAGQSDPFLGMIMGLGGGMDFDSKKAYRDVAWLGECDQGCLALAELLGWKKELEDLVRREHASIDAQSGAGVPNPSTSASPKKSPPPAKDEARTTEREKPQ

[2] = system: HeLa; test: Antiproliferative activity against human HeLa cells assessed as reduction in cell proliferation measured after 3 days by MTT assay; format: functional, cell-based; conditions: 72 h
[3] = system: MT2; test: Cytotoxicity against human MT2 cells assessed as reduction in cell proliferation measured after 3 days by MTT assay; format: cell-based; conditions: MT2, 72 h
[4] = system: HL-60; test: Antiproliferative activity against human HL-60 cells assessed as reduction in cell proliferation measured after 3 days by MTT assay; format: functional, cell-based; conditions: HL-60, 72 h
[5] = system: K562; test: Antiproliferative activity against human K562 cells assessed as reduction in cell proliferation measured after 3 days by MTT assay; format: functional, cell-based; conditions: K562, 72 h
[6] = system: MCF7; test: Antiproliferative activity against human MCF7 cells assessed as reduction in cell proliferation measured after 3 days by MTT assay; format: functional, cell-based; conditions: MCF7, 72 h

SMILES | IC50 [1] | IC50 [2] | IC50 [3] | IC50 [4] | IC50 [5] | IC50 [6]
CN(C)c1ccnc(CNCCS)c1 | > 100 µM |  |  |  |  | 
c1ccc(C(SCCNCc2ccccn2)(c2ccccc2)c2ccccc2)cc1 | 39.3 µM | 4.15 µM | 3.56 µM | 5.76 µM | 3.15 µM | 7.44 µM
CN(C)c1ccnc(CNCCSC(C)(C)C)c1 | > 100 µM |  |  |  |  | 
CCN(CC)c1ccnc(CNCCSC(c2ccccc2)(c2ccccc2)c2ccccc2)c1 | 7.6 µM | 1.32 µM | 2.22 µM | 2.68 µM | 1.11 µM | 4.97 µM
COC(=O)[C@@H](CSC(c1ccccc1)(c1ccccc1)c1ccccc1)NCc1cc(N(C)C)ccn1 | 10.8 µM | 1.56 µM | 3.15 µM | 0.45 µM | 2.17 µM | 3.16 µM
CN(C)c1cccc(CNCCSC(c2ccccc2)(c2ccccc2)c2ccccc2)c1 | > 100 µM |  |  |  |  | 
CN(C)c1ccnc(CNCCSC(c2ccccc2)(c2ccccc2)c2ccccc2)c1 | 7.5 µM | 2.25 µM | 3.16 µM | 1.87 µM | 2.44 µM | 5.1 µM
CN(C)c1ccc(CNCCSC(c2ccccc2)(c2ccccc2)c2ccccc2)c(Cl)c1 | > 100 µM |  |  |  |  | 
NCCSC(c1ccccc1)(c1ccccc1)c1ccccc1 | > 100 µM |  |  |  |  | 
CN(C)c1ccnc(C(=O)NCCSC(c2ccccc2)(c2ccccc2)c2ccccc2)c1 | > 100 µM |  |  |  |  | 
COc1cc(N(C)C)ccc1CNCCSC(c1ccccc1)(c1ccccc1)c1ccccc1 | > 100 µM |  |  |  |  | 
